Source: PubChem BioAssay (NCI)
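Here, GI50 denotes the concentration required for 50% inhibition of growth. At the TGI there is no net growth.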

How the values were obtained:
Assay in all cases: NCI tumour cell line growth inhibition, 384-well format
SK-MEL-2 melanoma = tested on: SK-MEL-2 melanoma
HS 578T breast = tested on: HS 578T breast
SK-OV-3 ovarian = tested on: SK-OV-3 ovarian
ACHN renal = tested on: ACHN renal
DU-145 prostate = tested on: DU-145 prostate
OVCAR-8 ovarian = tested on: OVCAR-8 ovarian
MDA-MB-231 breast = tested on: MDA-MB-231 breast
NCI-H322M lung = tested on: NCI-H322M lung
UO-31 renal = tested on: UO-31 renal
HCT-116 colon = tested on: HCT-116 colon
OVCAR-4 ovarian = tested on: OVCAR-4 ovarian
LOX IMVI melanoma = tested on: LOX IMVI melanoma
A549 NSCLC = tested on: A549 NSCLC
CCRF-CEM leukemia = tested on: CCRF-CEM leukemia
HOP-92 NSCLC = tested on: HOP-92 NSCLC
SNB-19 CNS = tested on: SNB-19 CNS
MDA-MB-468 breast = tested on: MDA-MB-468 breast
MCF7 breast = tested on: MCF7 breast
HCC-2998 colon = tested on: HCC-2998 colon
NCI-H23 lung = tested on: NCI-H23 lung
MDA-MB-435 melanoma = tested on: MDA-MB-435 melanoma
M14 melanoma = tested on: M14 melanoma
T-47D breast = tested on: T-47D breast
COLO 205 colon = tested on: COLO 205 colon
BT-549 breast = tested on: BT-549 breast
OVCAR-5 ovarian = tested on: OVCAR-5 ovarian
SF-539 CNS = tested on: SF-539 CNS
HT29 colon = tested on: HT29 colon
HOP-62 NSCLC = tested on: HOP-62 NSCLC
PC-3 prostate = tested on: PC-3 prostate
EKVX NSCLC = tested on: EKVX NSCLC
SNB-75 CNS = tested on: SNB-75 CNS
IGROV1 ovarian = tested on: IGROV1 ovarian
SR leukemia = tested on: SR leukemia
MALME-3M melanoma = tested on: MALME-3M melanoma
HCT-15 colon = tested on: HCT-15 colon
SK-MEL-5 melanoma = tested on: SK-MEL-5 melanoma
OVCAR-3 ovarian = tested on: OVCAR-3 ovarian
MOLT-4 leukemia = tested on: MOLT-4 leukemia
SW-620 colon = tested on: SW-620 colon
SF-268 CNS = tested on: SF-268 CNS
KM12 colon = tested on: KM12 colon
786-0 renal = tested on: 786-0 renal
RXF 393 renal = tested on: RXF 393 renal
CAKI-1 renal = tested on: CAKI-1 renal
TK-10 renal = tested on: TK-10 renal
UACC-62 melanoma = tested on: UACC-62 melanoma

## CNC(=O)c1ccccc1Nc1nc(Nc2ccc3c(c2OC)CCC[C@H](N2CCN(CCO)CC2)C3)ncc1Cl
SK-MEL-2 melanoma
  GI50: 304 nM
  TGI: 1050 nM
HS 578T breast
  GI50: 726 nM
  TGI: 2030 nM
SK-OV-3 ovarian
  GI50: 740 nM
  TGI: 2300 nM
ACHN renal
  GI50: 584 nM
  TGI: 2120 nM
DU-145 prostate
  GI50: 728 nM
  TGI: 2600 nM
OVCAR-8 ovarian
  GI50: 1500 nM
  TGI: 3180 nM
MDA-MB-231 breast
  GI50: 974 nM
  TGI: 2280 nM
NCI-H322M lung
  GI50: 806 nM
  TGI: 2330 nM
UO-31 renal
  GI50: 1080 nM
  TGI: 2290 nM
HCT-116 colon
  GI50: 934 nM
  TGI: 2320 nM
OVCAR-4 ovarian
  GI50: 1080 nM
  TGI: 2790 nM
LOX IMVI melanoma
  GI50: 655 nM
  TGI: 1970 nM
A549 NSCLC
  GI50: 1080 nM
  TGI: 2330 nM
CCRF-CEM leukemia
  GI50: 1860 nM
  TGI: 3320 nM
HOP-92 NSCLC
  GI50: 985 nM
  TGI: 2250 nM
SNB-19 CNS
  GI50: 2200 nM
  TGI: 5900 nM
MDA-MB-468 breast
  GI50: 384 nM
  TGI: 1660 nM
MCF7 breast
  GI50: 244 nM
  TGI: 1520 nM
HCC-2998 colon
  GI50: 1210 nM
  TGI: 2550 nM
NCI-H23 lung
  GI50: 673 nM
  TGI: 2320 nM
MDA-MB-435 melanoma
  GI50: 833 nM
  TGI: 3180 nM
M14 melanoma
  GI50: 632 nM
  TGI: 1850 nM
T-47D breast
  GI50: 1280 nM
  TGI: 2710 nM
COLO 205 colon
  GI50: 283 nM
  TGI: 960 nM
BT-549 breast
  GI50: 1970 nM
  TGI: 5200 nM
OVCAR-5 ovarian
  GI50: 925 nM
  TGI: 3480 nM
SF-539 CNS
  GI50: 1500 nM
  TGI: 2930 nM
HT29 colon
  GI50: 303 nM
  TGI: 1350 nM
HOP-62 NSCLC
  GI50: 1430 nM
  TGI: 3170 nM
PC-3 prostate
  GI50: 2020 nM
  TGI: 5060 nM
EKVX NSCLC
  GI50: 236 nM
  TGI: 1320 nM
SNB-75 CNS
  GI50: 1430 nM
  TGI: 3220 nM
IGROV1 ovarian
  GI50: 800 nM
  TGI: 2760 nM
SR leukemia
  GI50: 18.6 nM
  TGI: 34.7 nM
MALME-3M melanoma
  GI50: 414 nM
  TGI: 1450 nM
HCT-15 colon
  GI50: 533 nM
  TGI: 1730 nM
SK-MEL-5 melanoma
  GI50: 879 nM
  TGI: 2150 nM
OVCAR-3 ovarian
  GI50: 1180 nM
  TGI: 2770 nM
MOLT-4 leukemia
  GI50: 1280 nM
  TGI: 2560 nM
SW-620 colon
  GI50: 727 nM
  TGI: 2100 nM
SF-268 CNS
  GI50: 1550 nM
  TGI: 3020 nM
KM12 colon
  GI50: 955 nM
  TGI: 2630 nM
786-0 renal
  GI50: 1160 nM
  TGI: 2410 nM
RXF 393 renal
  GI50: 565 nM
  TGI: 1710 nM
CAKI-1 renal
  GI50: 511 nM
  TGI: 1920 nM
TK-10 renal
  GI50: 783 nM
  TGI: 2480 nM
UACC-62 melanoma
  GI50: 673 nM
  TGI: 1930 nM
